Source: patent US10167262B2, “Herbicidal substituted 3-arylpyrazoles” (FMC CORPORATION, priority 2014, dated 2019)

Columns and labels:
Type in all cases: in vivo
[1] = tested on: soybean (Glycine max); experiment: Test C pre-/postemergence greenhouse test, plant response rating 0-100; conditions: Postemergence; for Plant response rating, Soybean: scale 0 to 100
How it was run: (§1)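 Plants were scored visually against controls 13–15 days after treatment on a 0–100 scale, 100 meaning complete control. Test chemicals, formulated in surfactant-containing non-phytotoxic solvent, went preemergence onto seeds in loam–sand blend or postemergence onto 1- to 4-leaf plants (2–18 cm) grown in peat-based mix.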

[2] = tested on: pigweed (Amaranthus retroflexus); experiment: as above; conditions: Postemergence; for Plant response rating, Pigweed: scale 0 to 100
How it was run: as §1

[3] = tested on: yellow nutsedge (Cyperus esculentus); experiment: as above; conditions: Postemergence; for Plant response rating, Nutsedge, Yellow: scale 0 to 100
How it was run: as §1

[4] = tested on: lambsquarters (Chenopodium album); experiment: as above; conditions: Postemergence; for Plant response rating, Lambsquarters: scale 0 to 100
How it was run: as §1

[5] = tested on: johnsongrass (Sorghum halepense); experiment: as above; conditions: Postemergence; for Plant response rating, Johnsongrass: scale 0 to 100
How it was run: as §1

[6] = tested on: giant foxtail (Setaria faberii); experiment: as above; conditions: Postemergence; for Plant response rating, Foxtail, Giant: scale 0 to 100
How it was run: as §1

[7] = tested on: winter wheat (Triticum aestivum); experiment: as above; conditions: Postemergence; for Plant response rating, Wheat: scale 0 to 100
How it was run: as §1

[8] = tested on: galium (catchweed bedstraw, Galium aparine); experiment: as above; conditions: Postemergence; for Plant response rating, Galium: scale 0 to 100
How it was run: as §1

[9] = tested on: corn (Zea mays); experiment: as above; conditions: Postemergence; for Plant response rating, Corn: scale 0 to 100
How it was run: as §1

[10] = tested on: Italian ryegrass (Lolium multiflorum); experiment: as above; conditions: Postemergence; for Plant response rating, Ryegrass, Italian: scale 0 to 100
How it was run: as §1

[11] = tested on: chickweed (common chickweed, Stellaria media); experiment: Test C postemergence greenhouse test, plant response rating 0-100; conditions: for Plant response rating, Chickweed: scale 0 to 100
How it was run: (§2)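 First, plants were raised in a sphagnum peat, vermiculite and nutrient medium to 1–4 leaves. Next, formulated test compounds were applied over the foliage. Finally, after 13–15 greenhouse days, injury was compared with controls and scored 0–100.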

[12] = tested on: kochia (Kochia scoparia); experiment: as above; conditions: for Plant response rating, Kochia: scale 0 to 100
How it was run: as §2

[13] = tested on: wild oat (Avena fatua); experiment: as above; conditions: for Plant response rating, Oat, Wild: scale 0 to 100
How it was run: as §2

Fc1cccc(NN=C(c2ccccc2)c2c[nH]nc2-c2cc(Cl)cc(Cl)c2)c1 [Compound 58]
Plant response rating (0 to 100), Soybean ([1]; 62 g ai/ha): 0 | Plant response rating (0 to 100), Soybean ([1]; 125 g ai/ha): 5 | Plant response rating, Soybean ([1]; 250 g ai/ha): 10 | Plant response rating, Soybean ([1]; 500 g ai/ha): 10 | Plant response rating (0 to 100), Pigweed ([2]; 62 g ai/ha): 100 | Plant response rating (0 to 100), Pigweed ([2]; 125 g ai/ha): 100 | Plant response rating, Pigweed ([2]; 250 g ai/ha): 100 | Plant response rating, Pigweed ([2]; 500 g ai/ha): 100 | Plant response rating (0 to 100), Nutsedge, Yellow ([3]; 62 g ai/ha): 0 | Plant response rating (0 to 100), Nutsedge, Yellow ([3]; 125 g ai/ha): 0 | Plant response rating, Nutsedge, Yellow ([3]; 250 g ai/ha): 0 | Plant response rating, Nutsedge, Yellow ([3]; 500 g ai/ha): 0 | Plant response rating (0 to 100), Lambsquarters ([4]; 62 g ai/ha): 70 | Plant response rating (0 to 100), Lambsquarters ([4]; 125 g ai/ha): 100 | Plant response rating, Lambsquarters ([4]; 250 g ai/ha): 100 | Plant response rating, Lambsquarters ([4]; 500 g ai/ha): 100 | Plant response rating (0 to 100), Johnsongrass ([5]; 62 g ai/ha): 0 | Plant response rating (0 to 100), Johnsongrass ([5]; 125 g ai/ha): 25 | Plant response rating, Johnsongrass ([5]; 250 g ai/ha): 25 | Plant response rating, Johnsongrass ([5]; 500 g ai/ha): 25 | Plant response rating (0 to 100), Foxtail, Giant ([6]; 62 g ai/ha): 0 | Plant response rating (0 to 100), Foxtail, Giant ([6]; 125 g ai/ha): 0 | Plant response rating, Foxtail, Giant ([6]; 250 g ai/ha): 0 | Plant response rating, Foxtail, Giant ([6]; 500 g ai/ha): 5 | Plant response rating (0 to 100), Wheat ([7]; 62 g ai/ha): 0 | Plant response rating (0 to 100), Wheat ([7]; 125 g ai/ha): 0 | Plant response rating, Wheat ([7]; 250 g ai/ha): 0 | Plant response rating, Wheat ([7]; 500 g ai/ha): 0 | Plant response rating (0 to 100), Galium ([8]; 62 g ai/ha): 0 | Plant response rating (0 to 100), Galium ([8]; 125 g ai/ha): 0 | Plant response rating, Galium ([8]; 250 g ai/ha): 0 | Plant response rating, Galium ([8]; 500 g ai/ha): 5 | Plant response rating (0 to 100), Corn ([9]; 62 g ai/ha): 0 | Plant response rating (0 to 100), Corn ([9]; 125 g ai/ha): 5 | Plant response rating, Corn ([9]; 250 g ai/ha): 5 | Plant response rating, Corn ([9]; 500 g ai/ha): 5 | Plant response rating (0 to 100), Ryegrass, Italian ([10]; 62 g ai/ha): 0 | Plant response rating (0 to 100), Ryegrass, Italian ([10]; 125 g ai/ha): 0 | Plant response rating, Ryegrass, Italian ([10]; 250 g ai/ha): 0 | Plant response rating, Ryegrass, Italian ([10]; 500 g ai/ha): 0 | Plant response rating (0 to 100), Chickweed ([11]; 62 g ai/ha): 70 | Plant response rating (0 to 100), Chickweed ([11]; 125 g ai/ha): 100 | Plant response rating, Chickweed ([11]; 250 g ai/ha): 100 | Plant response rating, Chickweed ([11]; 500 g ai/ha): 100 | Plant response rating (0 to 100), Kochia ([12]; 62 g ai/ha): 15 | Plant response rating (0 to 100), Kochia ([12]; 125 g ai/ha): 50 | Plant response rating, Kochia ([12]; 250 g ai/ha): 98 | Plant response rating, Kochia ([12]; 500 g ai/ha): 98 | Plant response rating (0 to 100), Oat, Wild ([13]; 62 g ai/ha): 0 | Plant response rating (0 to 100), Oat, Wild ([13]; 125 g ai/ha): 0 | Plant response rating, Oat, Wild ([13]; 250 g ai/ha): 0 | Plant response rating, Oat, Wild ([13]; 500 g ai/ha): 0

C=CCn1cc(C(=O)c2ccccc2)c(-c2cc(Cl)cc(Cl)c2)n1 [Compound 60]
Plant response rating (0 to 100), Soybean ([1]; 62 g ai/ha): 5 | Plant response rating (0 to 100), Soybean ([1]; 125 g ai/ha): 5 | Plant response rating, Soybean ([1]; 250 g ai/ha): 5 | Plant response rating (0 to 100), Pigweed ([2]; 62 g ai/ha): 60 | Plant response rating (0 to 100), Pigweed ([2]; 125 g ai/ha): 65 | Plant response rating, Pigweed ([2]; 250 g ai/ha): 100 | Plant response rating (0 to 100), Nutsedge, Yellow ([3]; 62 g ai/ha): 0 | Plant response rating (0 to 100), Nutsedge, Yellow ([3]; 125 g ai/ha): 0 | Plant response rating, Nutsedge, Yellow ([3]; 250 g ai/ha): 0 | Plant response rating (0 to 100), Lambsquarters ([4]; 62 g ai/ha): 5 | Plant response rating (0 to 100), Lambsquarters ([4]; 125 g ai/ha): 40 | Plant response rating, Lambsquarters ([4]; 250 g ai/ha): 60 | Plant response rating (0 to 100), Johnsongrass ([5]; 62 g ai/ha): 0 | Plant response rating (0 to 100), Johnsongrass ([5]; 125 g ai/ha): 5 | Plant response rating, Johnsongrass ([5]; 250 g ai/ha): 5 | Plant response rating (0 to 100), Foxtail, Giant ([6]; 31 g ai/ha): 0 | Plant response rating (0 to 100), Foxtail, Giant ([6]; 62 g ai/ha): 5 | Plant response rating (0 to 100), Foxtail, Giant ([6]; 125 g ai/ha): 5 | Plant response rating, Foxtail, Giant ([6]; 250 g ai/ha): 5 | Plant response rating (0 to 100), Wheat ([7]; 62 g ai/ha): 0 | Plant response rating (0 to 100), Wheat ([7]; 125 g ai/ha): 0 | Plant response rating, Wheat ([7]; 250 g ai/ha): 0 | Plant response rating (0 to 100), Galium ([8]; 31 g ai/ha): 0 | Plant response rating (0 to 100), Galium ([8]; 62 g ai/ha): 0 | Plant response rating (0 to 100), Galium ([8]; 125 g ai/ha): 0 | Plant response rating, Galium ([8]; 250 g ai/ha): 0 | Plant response rating (0 to 100), Corn ([9]; 31 g ai/ha): 5 | Plant response rating (0 to 100), Corn ([9]; 62 g ai/ha): 5 | Plant response rating (0 to 100), Corn ([9]; 125 g ai/ha): 5 | Plant response rating, Corn ([9]; 250 g ai/ha): 5 | Plant response rating (0 to 100), Ryegrass, Italian ([10]; 62 g ai/ha): 0 | Plant response rating (0 to 100), Ryegrass, Italian ([10]; 125 g ai/ha): 0 | Plant response rating, Ryegrass, Italian ([10]; 250 g ai/ha): 0 | Plant response rating (0 to 100), Chickweed ([11]; 31 g ai/ha): 75 | Plant response rating (0 to 100), Chickweed ([11]; 125 g ai/ha): 100 | Plant response rating, Chickweed ([11]; 250 g ai/ha): 100 | Plant response rating (0 to 100), Kochia ([12]; 62 g ai/ha): 10 | Plant response rating (0 to 100), Kochia ([12]; 125 g ai/ha): 20 | Plant response rating, Kochia ([12]; 250 g ai/ha): 55 | Plant response rating (0 to 100), Oat, Wild ([13]; 62 g ai/ha): 0 | Plant response rating (0 to 100), Oat, Wild ([13]; 125 g ai/ha): 0 | Plant response rating, Oat, Wild ([13]; 250 g ai/ha): 0
